{
  "source": "patent US20170190671A1",
  "about": "“BIS(ARYL)CATECHOL DERIVATIVES AS HERBICIDES” (E I DU PONT DE NEMOURS AND COMPANY, priority 2014, published 2017)",
  "experiment_in_all_cases": "Test E preemergence",
  "type_in_all_cases": "in vivo",
  "conditions_in_all_cases": "scale 0 to 100",
  "key": {"[1]": {"test_system": "Brazilian crabgrass (Digitaria horizontalis)", "outline": "(§1)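 Test chemicals, formulated in a non-phytotoxic solvent with surfactant, are applied to silt loam soil after sowing or sprayed over young plants (1–4 leaves) in potting medium. Plants are then kept in a greenhouse for 14 to 21 days and scored 0–100 for control.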"}, "[2]": {"test_system": "Italian ryegrass (Lolium multiflorum)", "outline": "as §1"}, "[3]": {"test_system": "Surinam grass (Brachiaria decumbens)", "outline": "as §1"}, "[4]": {"test_system": "barnyardgrass (Echinochloa crus-galli)", "outline": "as §1"}, "[5]": {"test_system": "dayflower (Virginia (VA) dayflower, Commelina virginica)", "outline": "as §1"}, "[6]": {"test_system": "fall panicum (Panicum dichotomiflorum)", "outline": "as §1"}, "[7]": {"test_system": "field bindweed (Convolvulus arvensis)", "outline": "as §1"}, "[8]": {"test_system": "giant foxtail (Setaria faberii)", "outline": "as §1"}, "[9]": {"test_system": "goosegrass (Eleusine indica)", "outline": "as §1"}, "[10]": {"test_system": "green foxtail (Setaria viridis)", "outline": "as §1"}, "[11]": {"test_system": "hairy beggarticks (Bidens pilosa)", "outline": "as §1"}, "kochia (Kochia scoparia)": {"test_system": "kochia (Kochia scoparia)", "outline": "as §1"}, "[12]": {"test_system": "lambsquarters (Chenopodium album)", "outline": "as §1"}, "[13]": {"test_system": "large (Lg) crabgrass (Digitaria sanguinalis)", "outline": "as §1"}, "[14]": {"test_system": "morningglory (Ipomoea coccinea)", "outline": "as §1"}, "[15]": {"test_system": "nightshade (eastern black nightshade, Solanum ptycanthum)", "outline": "as §1"}, "[16]": {"test_system": "palmer pigweed (Amaranthus palmeri)", "outline": "as §1"}, "[17]": {"test_system": "ragweed (common ragweed, Ambrosia elatior)", "outline": "as §1"}, "[18]": {"test_system": "velvetleaf (Abutilon theophrasti)", "outline": "as §1"}, "[19]": {"test_system": "waterhemp (common waterhemp, Amaranthus rudis)", "outline": "as §1"}, "[20]": {"test_system": "yellow nutsedge (Cyperus esculentus)", "outline": "as §1"}},
  "data": [
    {"smiles": "Fc1cccc(Oc2ncc(Cl)cn2)c1Oc1ncc(Cl)cn1", "note": "[Compound 21, 2,2′-[[3-fluoro-1,2-phenylene]bis(oxy)]bis[5-chloropyrimidine]]", "values": [
      {"measurement": "Plant response rating, Crabgrass, Brazil", "setting": "[1]; 16 g ai/ha", "value": 0},
      {"measurement": "Plant response rating, Crabgrass, Brazil", "setting": "[1]; 31 g ai/ha", "value": 65},
      {"measurement": "Plant response rating, Crabgrass, Brazil", "setting": "[1]; 62 g ai/ha", "value": 100},
      {"measurement": "Plant response rating, Crabgrass, Brazil", "setting": "[1]; 125 g ai/ha", "value": 100},
      {"measurement": "Plant response rating, Ryegrass, Italian", "setting": "[2]; 16 g ai/ha", "value": 0},
      {"measurement": "Plant response rating, Ryegrass, Italian", "setting": "[2]; 31 g ai/ha", "value": 0},
      {"measurement": "Plant response rating, Ryegrass, Italian", "setting": "[2]; 62 g ai/ha", "value": 35},
      {"measurement": "Plant response rating, Ryegrass, Italian", "setting": "[2]; 125 g ai/ha", "value": 70},
      {"measurement": "Plant response rating, Surinam Grass", "setting": "[3]; 16 g ai/ha", "value": 0},
      {"measurement": "Plant response rating, Surinam Grass", "setting": "[3]; 31 g ai/ha", "value": 10},
      {"measurement": "Plant response rating, Surinam Grass", "setting": "[3]; 62 g ai/ha", "value": 0},
      {"measurement": "Plant response rating, Surinam Grass", "setting": "[3]; 125 g ai/ha", "value": 50},
      {"measurement": "Plant response rating, Barnyardgrass", "setting": "[4]; 16 g ai/ha", "value": 15},
      {"measurement": "Plant response rating, Barnyardgrass", "setting": "[4]; 31 g ai/ha", "value": 20},
      {"measurement": "Plant response rating, Barnyardgrass", "setting": "[4]; 62 g ai/ha", "value": 65},
      {"measurement": "Plant response rating, Barnyardgrass", "setting": "[4]; 125 g ai/ha", "value": 100},
      {"measurement": "Plant response rating, Dayflower, VA", "setting": "[5]; 16 g ai/ha", "value": 0},
      {"measurement": "Plant response rating, Dayflower, VA", "setting": "[5]; 31 g ai/ha", "value": 0},
      {"measurement": "Plant response rating, Dayflower, VA", "setting": "[5]; 62 g ai/ha", "value": 25},
      {"measurement": "Plant response rating, Dayflower, VA", "setting": "[5]; 125 g ai/ha", "value": 95},
      {"measurement": "Plant response rating, Panicum, Fall", "setting": "[6]; 16 g ai/ha", "value": 35},
      {"measurement": "Plant response rating, Panicum, Fall", "setting": "[6]; 31 g ai/ha", "value": 75},
      {"measurement": "Plant response rating, Panicum, Fall", "setting": "[6]; 62 g ai/ha", "value": 100},
      {"measurement": "Plant response rating, Panicum, Fall", "setting": "[6]; 125 g ai/ha", "value": 100},
      {"measurement": "Plant response rating, Field Bindweed", "setting": "[7]; 16 g ai/ha", "value": 0},
      {"measurement": "Plant response rating, Field Bindweed", "setting": "[7]; 31 g ai/ha", "value": 0},
      {"measurement": "Plant response rating, Field Bindweed", "setting": "[7]; 62 g ai/ha", "value": 15},
      {"measurement": "Plant response rating, Field Bindweed", "setting": "[7]; 125 g ai/ha", "value": 40},
      {"measurement": "Plant response rating, Foxtail, Giant", "setting": "[8]; 16 g ai/ha", "value": 5},
      {"measurement": "Plant response rating, Foxtail, Giant", "setting": "[8]; 31 g ai/ha", "value": 90},
      {"measurement": "Plant response rating, Foxtail, Giant", "setting": "[8]; 62 g ai/ha", "value": 100},
      {"measurement": "Plant response rating, Foxtail, Giant", "setting": "[8]; 125 g ai/ha", "value": 100},
      {"measurement": "Plant response rating, Goosegrass", "setting": "[9]; 16 g ai/ha", "value": 10},
      {"measurement": "Plant response rating, Goosegrass", "setting": "[9]; 31 g ai/ha", "value": 50},
      {"measurement": "Plant response rating, Goosegrass", "setting": "[9]; 62 g ai/ha", "value": 75},
      {"measurement": "Plant response rating, Goosegrass", "setting": "[9]; 125 g ai/ha", "value": 98},
      {"measurement": "Plant response rating, Foxtail, Green", "setting": "[10]; 16 g ai/ha", "value": 15},
      {"measurement": "Plant response rating, Foxtail, Green", "setting": "[10]; 31 g ai/ha", "value": 50},
      {"measurement": "Plant response rating, Foxtail, Green", "setting": "[10]; 62 g ai/ha", "value": 70},
      {"measurement": "Plant response rating, Foxtail, Green", "setting": "[10]; 125 g ai/ha", "value": 100},
      {"measurement": "Plant response rating, Beggarticks", "setting": "[11]; 16 g ai/ha", "value": 0},
      {"measurement": "Plant response rating, Beggarticks", "setting": "[11]; 31 g ai/ha", "value": 0},
      {"measurement": "Plant response rating, Beggarticks", "setting": "[11]; 62 g ai/ha", "value": 0},
      {"measurement": "Plant response rating, Beggarticks", "setting": "[11]; 125 g ai/ha", "value": 0},
      {"measurement": "Plant response rating, Kochia", "setting": "kochia (Kochia scoparia); 16 g ai/ha", "value": 20},
      {"measurement": "Plant response rating, Kochia", "setting": "kochia (Kochia scoparia); 31 g ai/ha", "value": 50},
      {"measurement": "Plant response rating, Kochia", "setting": "kochia (Kochia scoparia); 62 g ai/ha", "value": 75},
      {"measurement": "Plant response rating, Kochia", "setting": "kochia (Kochia scoparia); 125 g ai/ha", "value": 100},
      {"measurement": "Plant response rating, Lambsquarters", "setting": "[12]; 16 g ai/ha", "value": 0},
      {"measurement": "Plant response rating, Lambsquarters", "setting": "[12]; 31 g ai/ha", "value": 40},
      {"measurement": "Plant response rating, Lambsquarters", "setting": "[12]; 62 g ai/ha", "value": 100},
      {"measurement": "Plant response rating, Lambsquarters", "setting": "[12]; 125 g ai/ha", "value": 100},
      {"measurement": "Plant response rating, Crabgrass, Large", "setting": "[13]; 16 g ai/ha", "value": 50},
      {"measurement": "Plant response rating, Crabgrass, Large", "setting": "[13]; 31 g ai/ha", "value": 75},
      {"measurement": "Plant response rating, Crabgrass, Large", "setting": "[13]; 62 g ai/ha", "value": 95},
      {"measurement": "Plant response rating, Crabgrass, Large", "setting": "[13]; 125 g ai/ha", "value": 100},
      {"measurement": "Plant response rating, Morningglory", "setting": "[14]; 16 g ai/ha", "value": 10},
      {"measurement": "Plant response rating, Morningglory", "setting": "[14]; 31 g ai/ha", "value": 50},
      {"measurement": "Plant response rating, Morningglory", "setting": "[14]; 62 g ai/ha", "value": 90},
      {"measurement": "Plant response rating, Morningglory", "setting": "[14]; 125 g ai/ha", "value": 80},
      {"measurement": "Plant response rating, Nightshade", "setting": "[15]; 16 g ai/ha", "value": 80},
      {"measurement": "Plant response rating, Nightshade", "setting": "[15]; 31 g ai/ha", "value": 90},
      {"measurement": "Plant response rating, Nightshade", "setting": "[15]; 62 g ai/ha", "value": 98},
      {"measurement": "Plant response rating, Nightshade", "setting": "[15]; 125 g ai/ha", "value": 100},
      {"measurement": "Plant response rating, Pigweed, Palmer", "setting": "[16]; 16 g ai/ha", "value": 0},
      {"measurement": "Plant response rating, Pigweed, Palmer", "setting": "[16]; 31 g ai/ha", "value": 60},
      {"measurement": "Plant response rating, Pigweed, Palmer", "setting": "[16]; 62 g ai/ha", "value": 100},
      {"measurement": "Plant response rating, Pigweed, Palmer", "setting": "[16]; 125 g ai/ha", "value": 100},
      {"measurement": "Plant response rating, Ragweed", "setting": "[17]; 16 g ai/ha", "value": 0},
      {"measurement": "Plant response rating, Ragweed", "setting": "[17]; 31 g ai/ha", "value": 50},
      {"measurement": "Plant response rating, Ragweed", "setting": "[17]; 62 g ai/ha", "value": 50},
      {"measurement": "Plant response rating, Ragweed", "setting": "[17]; 125 g ai/ha", "value": 98},
      {"measurement": "Plant response rating, Velvetleaf", "setting": "[18]; 16 g ai/ha", "value": 80},
      {"measurement": "Plant response rating, Velvetleaf", "setting": "[18]; 31 g ai/ha", "value": 70},
      {"measurement": "Plant response rating, Velvetleaf", "setting": "[18]; 62 g ai/ha", "value": 100},
      {"measurement": "Plant response rating, Velvetleaf", "setting": "[18]; 125 g ai/ha", "value": 100},
      {"measurement": "Plant response rating, Waterhemp", "setting": "[19]; 16 g ai/ha", "value": 65},
      {"measurement": "Plant response rating, Waterhemp", "setting": "[19]; 31 g ai/ha", "value": 80},
      {"measurement": "Plant response rating, Waterhemp", "setting": "[19]; 62 g ai/ha", "value": 100},
      {"measurement": "Plant response rating, Waterhemp", "setting": "[19]; 125 g ai/ha", "value": 100},
      {"measurement": "Plant response rating, Nutsedge, Yellow", "setting": "[20]; 16 g ai/ha", "value": 0},
      {"measurement": "Plant response rating, Nutsedge, Yellow", "setting": "[20]; 31 g ai/ha", "value": 0},
      {"measurement": "Plant response rating, Nutsedge, Yellow", "setting": "[20]; 62 g ai/ha", "value": 0},
      {"measurement": "Plant response rating, Nutsedge, Yellow", "setting": "[20]; 125 g ai/ha", "value": 15}
    ]}
  ]
}
